Experimental data reported in ChEMBL document CHEMBL2010752, “Synthesis and biological evaluation of benzoisothiazole derivatives possessing N,N-dimethylformimidamide group as 5-HT₆ receptor antagonists” (Bioorg Med Chem, 2012).
Values belong to the compound of their own block, whether it stands above or below them.

Assays:
Type in all cases: functional, cell-based
[1] = biological target: T1, 5-hydroxytryptamine receptor 6 (Homo sapiens, UniProt P50406); test: Antagonist activity at human recombinant 5HT6 receptor expressed in HeLa cells assessed as inhibition of 5HT-induced intracellular calcium level at 10 uM incubated for 15 mins prior to 5HT-induction measured after 1 hr by fluo-4-AM-based fluorimetry
[2] = biological target: 5-hydroxytryptamine receptor 4 (Homo sapiens) (UniProt Q13639); test: Antagonist activity at human 5HT4 receptor expressed in HEK293 cells assessed as inhibition of 5HT-induced intracellular calcium level at 10 uM incubated for 15 mins prior to 5HT-induction measured after 1 hr by fluo-4-AM-based fluorimetry
[3] = biological target: 5-hydroxytryptamine receptor 7 (Homo sapiens) (UniProt P34969); test: Antagonist activity at human 5HT7 receptor expressed in HEK293 cells assessed as inhibition of 5HT-induced intracellular calcium level at 10 uM incubated for 15 mins prior to 5HT-induction measured after 1 hr by fluo-4-AM-based fluorimetry
[4] = biological target: T1, 5-hydroxytryptamine receptor 6; test: Antagonist activity at human 5HT6 receptor expressed in HEK293 cells assessed as inhibition of 5HT-induced intracellular calcium level at 10 uM incubated for 15 mins prior to 5HT-induction measured after 1 hr by fluo-4-AM-based fluorimetry
[5] = biological target: T1, 5-hydroxytryptamine receptor 6; test: Antagonist activity at human recombinant 5HT6 receptor expressed in HeLa cells assessed as inhibition of 5HT-induced intracellular calcium level incubated for 15 mins prior to 5HT-induction measured after 1 hr by fluo-4-AM-based fluorimetry

Sequence of 5-hydroxytryptamine receptor 7 (Homo sapiens) (P34969 whole entry): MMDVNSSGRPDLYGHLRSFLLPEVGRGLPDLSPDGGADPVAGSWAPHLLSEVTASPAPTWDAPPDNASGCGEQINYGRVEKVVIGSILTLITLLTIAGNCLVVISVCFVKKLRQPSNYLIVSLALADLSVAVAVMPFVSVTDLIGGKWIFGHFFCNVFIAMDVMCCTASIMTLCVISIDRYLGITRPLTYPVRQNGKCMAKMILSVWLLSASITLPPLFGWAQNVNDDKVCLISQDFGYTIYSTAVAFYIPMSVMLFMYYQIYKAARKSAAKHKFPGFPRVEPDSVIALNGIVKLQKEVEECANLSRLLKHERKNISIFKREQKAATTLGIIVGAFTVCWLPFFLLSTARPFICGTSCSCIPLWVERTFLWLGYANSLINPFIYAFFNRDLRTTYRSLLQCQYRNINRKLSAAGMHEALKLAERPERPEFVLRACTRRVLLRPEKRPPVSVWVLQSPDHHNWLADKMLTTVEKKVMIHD
Sequence of 5-hydroxytryptamine receptor 4 (Homo sapiens) (Q13639 whole entry): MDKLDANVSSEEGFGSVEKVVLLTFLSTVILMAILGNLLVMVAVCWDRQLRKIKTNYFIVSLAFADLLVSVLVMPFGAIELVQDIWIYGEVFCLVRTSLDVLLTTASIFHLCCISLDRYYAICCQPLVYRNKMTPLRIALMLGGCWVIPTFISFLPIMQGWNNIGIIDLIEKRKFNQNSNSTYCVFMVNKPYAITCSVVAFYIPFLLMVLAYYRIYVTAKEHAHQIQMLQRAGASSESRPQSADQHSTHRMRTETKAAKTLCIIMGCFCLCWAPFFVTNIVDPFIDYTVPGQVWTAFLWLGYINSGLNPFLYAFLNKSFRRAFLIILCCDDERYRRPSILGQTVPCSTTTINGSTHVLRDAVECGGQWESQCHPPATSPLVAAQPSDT
T1 sequence (P50406 whole entry): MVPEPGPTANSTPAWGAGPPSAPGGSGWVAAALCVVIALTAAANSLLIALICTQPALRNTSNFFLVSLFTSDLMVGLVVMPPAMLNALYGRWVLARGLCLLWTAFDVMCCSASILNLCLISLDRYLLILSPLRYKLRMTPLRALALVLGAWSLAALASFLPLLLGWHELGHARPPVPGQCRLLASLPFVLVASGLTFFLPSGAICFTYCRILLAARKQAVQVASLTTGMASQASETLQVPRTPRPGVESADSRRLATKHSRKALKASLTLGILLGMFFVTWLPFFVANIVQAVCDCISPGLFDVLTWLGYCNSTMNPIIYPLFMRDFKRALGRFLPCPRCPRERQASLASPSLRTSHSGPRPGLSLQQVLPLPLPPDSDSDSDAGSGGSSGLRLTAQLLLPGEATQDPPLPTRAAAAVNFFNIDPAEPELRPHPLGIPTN

SMILES: CN(C)/C=N/c1nsc2ccc(NS(=O)(=O)c3c(F)cccc3F)cc12
- inhibition [1]: 10.8%

SMILES: CN(C)/C=N/c1nsc2ccc(NS(=O)(=O)c3ccc(Cl)cc3)cc12
- inhibition [2]: 11.6%
- inhibition [3]: 40.2%
- inhibition [1]: 51.1%
- inhibition [4]: 53.9%
- IC50 [5]: 3600 nM

SMILES: CN(C)/C=N/c1nc2cc(NS(=O)(=O)c3ccc4ccccc4c3)ccc2s1
- inhibition [1]: 66.3%

SMILES: CN(C)/C=N/c1nsc2ccc(NS(=O)(=O)c3ccc4ccccc4c3)cc12
- inhibition [2]: 17.4%
- inhibition [3]: 28.9%
- inhibition [1]: 99.1%
- inhibition [4]: 98.8%
- IC50 [5]: 440 nM

SMILES: CN(C)/C=N/c1nc2cc(NS(=O)(=O)c3cccc4ccccc34)ccc2s1
- inhibition [1]: 25.5%

Further lines, results first:

- inhibition [1]: 20.2%
SMILES: CN(C)/C=N/c1nsc2ccc(NS(=O)(=O)c3ccc(F)cc3)cc12

- inhibition [1]: 42.6%
SMILES: CN(C)/C=N/c1nsc2ccc(NS(=O)(=O)c3ccccc3)cc12

- inhibition [2]: 21.9%
- inhibition [3]: 68.8%
- inhibition [1]: 84.3%
- inhibition [4]: 86.5%
- IC50 [5]: 360 nM
SMILES: Cc1ccc(S(=O)(=O)Nc2ccc3snc(/N=C/N(C)C)c3c2)cc1

- inhibition [1]: 12.1%
SMILES: CN(C)/C=N/c1nsc2ccc(NS(=O)(=O)c3cccc4cccnc34)cc12

- inhibition [1]: 27%
SMILES: CC(C)c1ccc(S(=O)(=O)Nc2ccc3snc(/N=C/N(C)C)c3c2)cc1

- inhibition [1]: 43.5%
SMILES: CN(C)/C=N/c1nsc2ccc(NS(=O)(=O)c3cccc4ccccc34)cc12

- inhibition [1]: 9.8%
SMILES: CN(C)/C=N/c1nsc2ccc(NS(=O)(=O)c3ccc([N+](=O)[O-])cc3)cc12
